Data on one molecule can be found in patent publication US9765065B2, “Therapeutic substituted cyclopentanes” (ALLERGAN, INC., priority 2007, dated 2017).

Broadly, the EC50 is the concentration at which the effect is half-maximal. High values mean lower potency in that assay, low ones higher potency in that assay. Usually Ki stands for the equilibrium dissociation constant of an inhibitor or competing ligand from its target. Read a low Ki as a stronger hold on the target.

In experiment [1] the target is T1, EP2 (Homo sapiens, UniProt P43116). Kind of experiment: EP2 flipr. Type of experiment: cell-based. The source says: (§1) U.S. patent application Ser. No. 11/553,143, filed on Oct. 26, 2006, incorporated by reference herein in its entirety, describes the methods used to obtain the in vitro data in the table below.
T1 sequence (P43116 whole entry): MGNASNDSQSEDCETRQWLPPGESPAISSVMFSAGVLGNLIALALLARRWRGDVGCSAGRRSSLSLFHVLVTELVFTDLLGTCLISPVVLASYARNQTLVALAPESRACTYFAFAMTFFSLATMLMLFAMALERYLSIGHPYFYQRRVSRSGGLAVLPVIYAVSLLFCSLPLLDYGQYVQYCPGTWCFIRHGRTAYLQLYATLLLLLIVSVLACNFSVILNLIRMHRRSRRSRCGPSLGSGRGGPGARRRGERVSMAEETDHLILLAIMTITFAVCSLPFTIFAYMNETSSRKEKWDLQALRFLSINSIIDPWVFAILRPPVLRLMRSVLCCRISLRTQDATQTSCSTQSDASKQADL
Experiment [2] has as its target T1, EP2. Kind of experiment: EP2 cAMP. Type of experiment: cell-based.
Text: as §1

Experiment [3] deals with T1, EP2. Kind of experiment: EP2 binding Ki.
Text: as §1

The target in experiment [4] is T2, EP4 (Homo sapiens, UniProt P35408). The experiment can be described thus: EP4 flipr. Format: cell-based.
T2 sequence (P35408 whole entry): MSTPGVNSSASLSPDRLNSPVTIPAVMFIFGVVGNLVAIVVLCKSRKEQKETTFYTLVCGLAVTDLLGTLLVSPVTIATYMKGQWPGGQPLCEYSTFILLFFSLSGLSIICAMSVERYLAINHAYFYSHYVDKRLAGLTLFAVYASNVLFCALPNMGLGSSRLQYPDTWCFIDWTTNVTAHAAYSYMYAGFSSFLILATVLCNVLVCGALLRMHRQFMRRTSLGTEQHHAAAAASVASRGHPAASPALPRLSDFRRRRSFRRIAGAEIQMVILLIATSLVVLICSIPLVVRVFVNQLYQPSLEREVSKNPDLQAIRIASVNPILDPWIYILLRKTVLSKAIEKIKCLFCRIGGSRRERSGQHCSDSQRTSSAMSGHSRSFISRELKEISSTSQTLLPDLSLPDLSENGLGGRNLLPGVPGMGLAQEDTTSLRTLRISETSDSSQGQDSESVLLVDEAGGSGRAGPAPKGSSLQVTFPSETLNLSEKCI
Text: as §1

Experiment [5] deals with T2, EP4. The experiment can be described thus: EP4 binding Ki.
Text: as §1

For another experiment, the target named is T3, hEP3A (Homo sapiens, UniProt P43115).
T3 sequence (P43115 1-390): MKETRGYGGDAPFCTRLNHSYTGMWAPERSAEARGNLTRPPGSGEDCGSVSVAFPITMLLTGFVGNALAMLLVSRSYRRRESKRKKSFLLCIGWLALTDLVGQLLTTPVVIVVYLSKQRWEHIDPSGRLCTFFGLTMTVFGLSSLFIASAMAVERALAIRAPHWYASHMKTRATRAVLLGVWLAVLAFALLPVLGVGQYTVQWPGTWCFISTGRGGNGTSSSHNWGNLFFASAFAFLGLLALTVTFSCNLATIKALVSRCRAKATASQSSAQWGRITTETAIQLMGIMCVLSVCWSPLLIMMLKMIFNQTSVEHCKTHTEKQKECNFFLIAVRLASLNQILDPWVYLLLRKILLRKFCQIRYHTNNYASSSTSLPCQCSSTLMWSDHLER
Kind of experiment: Other receptors hEP3A. Format: cell-based.
Text: as §1

For the next experiment, the target named is T4, hTP (Homo sapiens, UniProt P21731).
T4 sequence (P21731 1-343): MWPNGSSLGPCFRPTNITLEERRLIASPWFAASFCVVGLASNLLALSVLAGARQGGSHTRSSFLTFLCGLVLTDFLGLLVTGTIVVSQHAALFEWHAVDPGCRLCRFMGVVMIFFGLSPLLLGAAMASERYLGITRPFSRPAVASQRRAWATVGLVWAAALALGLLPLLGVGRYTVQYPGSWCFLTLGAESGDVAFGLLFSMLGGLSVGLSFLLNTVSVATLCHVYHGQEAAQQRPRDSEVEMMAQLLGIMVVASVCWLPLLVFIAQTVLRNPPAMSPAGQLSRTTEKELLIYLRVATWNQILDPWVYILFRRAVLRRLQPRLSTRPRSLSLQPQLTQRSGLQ
The experiment can be described thus: Other receptors hTP. Type of experiment: cell-based.
Text: as §1

The target of another experiment is T5, hDP (Homo sapiens, UniProt Q13258).
T5 sequence (Q13258 1-359): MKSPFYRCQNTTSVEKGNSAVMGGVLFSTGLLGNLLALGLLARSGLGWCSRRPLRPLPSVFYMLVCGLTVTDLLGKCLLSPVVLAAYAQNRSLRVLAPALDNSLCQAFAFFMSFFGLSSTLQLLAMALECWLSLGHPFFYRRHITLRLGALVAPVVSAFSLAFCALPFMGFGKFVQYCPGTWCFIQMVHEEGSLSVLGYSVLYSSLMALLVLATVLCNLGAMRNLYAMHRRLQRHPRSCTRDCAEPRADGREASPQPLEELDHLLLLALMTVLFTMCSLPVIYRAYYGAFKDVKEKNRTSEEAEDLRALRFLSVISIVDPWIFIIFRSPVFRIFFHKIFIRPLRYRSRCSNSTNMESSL
Kind of experiment: Other receptors hDP. Type of experiment: cell-based.
Text: as §1

Take `Cc1cccc(/C=C/[C@@H]2[C@@H](CCCc3ccc(C(=O)O)s3)[C@H](Cl)C[C@H]2O)c1` [Example 12, 5-(3-((1R,2R,3R,5R)-5-chloro-3-hydroxy-2-(3-methylstyryl)cyclopentyl)propyl)thiophene-2-carboxylic acid]: the EC50 on EP2 [1] was found to be 17 nM; on EP2 [2] it was 0.1 nM; on EP4 [4], 16900 nM; on hEP3A it was 9880 nM; at hTP, 3760 nM; on hDP, 12300 nM. Also, the inhibitory constant (Ki) came to 2 nM on EP2 [3] and 144 nM at EP4 [5].
